{"source": "ChEMBL document CHEMBL2074078", "about": "“Interaction of common azole antifungals with P glycoprotein” (Antimicrob Agents Chemother, 2002)", "target": "ATP-dependent translocase ABCB1 (Homo sapiens, UniProt P08183)", "sequence (P08183 whole entry)": "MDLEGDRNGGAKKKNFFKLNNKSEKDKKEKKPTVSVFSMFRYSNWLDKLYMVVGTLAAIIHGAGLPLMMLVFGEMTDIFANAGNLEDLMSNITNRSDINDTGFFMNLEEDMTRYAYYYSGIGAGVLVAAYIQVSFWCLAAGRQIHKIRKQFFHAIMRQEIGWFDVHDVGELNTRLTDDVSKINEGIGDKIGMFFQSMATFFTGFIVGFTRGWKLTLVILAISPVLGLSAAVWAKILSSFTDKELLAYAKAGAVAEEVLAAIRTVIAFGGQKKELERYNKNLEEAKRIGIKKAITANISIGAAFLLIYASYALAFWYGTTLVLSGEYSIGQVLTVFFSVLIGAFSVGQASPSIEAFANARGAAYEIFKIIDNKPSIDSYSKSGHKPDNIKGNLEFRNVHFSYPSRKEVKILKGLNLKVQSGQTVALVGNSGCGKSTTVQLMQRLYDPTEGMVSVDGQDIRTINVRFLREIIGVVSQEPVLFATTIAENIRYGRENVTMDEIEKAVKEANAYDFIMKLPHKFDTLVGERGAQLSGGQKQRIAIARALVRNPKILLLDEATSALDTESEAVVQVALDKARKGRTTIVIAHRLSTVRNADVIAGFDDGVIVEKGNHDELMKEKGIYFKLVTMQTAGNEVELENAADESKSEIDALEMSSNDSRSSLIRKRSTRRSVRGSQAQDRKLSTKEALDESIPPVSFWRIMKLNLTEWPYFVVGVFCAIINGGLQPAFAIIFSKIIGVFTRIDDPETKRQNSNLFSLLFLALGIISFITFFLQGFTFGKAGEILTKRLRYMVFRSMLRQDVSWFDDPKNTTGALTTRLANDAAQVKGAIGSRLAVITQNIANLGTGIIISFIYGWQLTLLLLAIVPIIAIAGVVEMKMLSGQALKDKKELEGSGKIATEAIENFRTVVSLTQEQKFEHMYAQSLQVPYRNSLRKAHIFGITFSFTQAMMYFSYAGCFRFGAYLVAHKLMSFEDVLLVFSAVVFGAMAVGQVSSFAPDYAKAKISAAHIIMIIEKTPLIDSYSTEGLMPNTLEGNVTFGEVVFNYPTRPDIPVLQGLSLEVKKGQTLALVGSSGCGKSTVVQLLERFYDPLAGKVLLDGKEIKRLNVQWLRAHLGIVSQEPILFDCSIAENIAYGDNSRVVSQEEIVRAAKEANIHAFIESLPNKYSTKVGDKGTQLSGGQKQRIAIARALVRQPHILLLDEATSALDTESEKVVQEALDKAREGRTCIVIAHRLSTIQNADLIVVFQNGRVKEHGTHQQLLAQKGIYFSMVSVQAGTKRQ", "test": "TP_TRANSPORTER: inhibition of Daunorubicin transport in G185 cells", "type": "functional, cell-based", "conditions": "mouse"}
{"smiles": "OC(Cn1cncn1)(Cn1cncn1)c1ccc(F)cc1F", "note": "[FLUCONAZOLE]", "values": [{"measurement": "Activity", "result": "is not an inhibitor [-]"}]}
